Where “and” joins values, the source holds several entries; their conditions need not be identical. Identical values can stand only once. Toxic doses and inconclusive results are not listed. How the source made its calls: active means survival T/C of 150% or more; inactive means T/C below 125% in these data.
Test system: BDF1 mice, P388 leukemia ip, median survival T/C
Assay: NCI In Vivo Anticancer Drug Screen. Data for tumor model P388 Leukemia (intraperitoneal) in B6D2F1 (BDF1) mice
Conditions: endpoint: median survival time, higher = longer survival
Summary of the method: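 Compound-treated tumour-bearing mice were compared with vehicle-treated controls. Survival was recorded, and the value is the treated-group measurement divided by the control-group measurement (T/C).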

[1] = dose: 50.0 mg/kg/injection, schedule: Q01DX009 (ip), vehicle: saline with Tween-80
[2] = dose: 100.0 mg/kg/injection, schedule: Q01DX009 (ip), vehicle: saline with Tween-80
[3] = dose: 200.0 mg/kg/injection, schedule: Q01DX009 (ip), vehicle: saline with Tween-80
[4] = dose: 25.0 mg/kg/injection, schedule: Q01DX009 (ip), vehicle: saline
[5] = dose: 50.0 mg/kg/injection, schedule: Q01DX009 (ip), vehicle: saline
[6] = dose: 100.0 mg/kg/injection, schedule: Q04DX003 (ip), vehicle: saline
[7] = dose: 200.0 mg/kg/injection, schedule: Q04DX003 (ip), vehicle: saline
[8] = dose: 100.0 mg/kg/injection, schedule: Q01DX009 (ip), vehicle: saline
[9] = dose: 200.0 mg/kg/injection, schedule: Q01DX009 (ip), vehicle: saline
[10] = dose: 6.25 mg/kg/injection, schedule: Q01DX009 (ip), vehicle: water
[11] = dose: 12.5 mg/kg/injection, schedule: Q01DX009 (ip), vehicle: water
[12] = dose: 25.0 mg/kg/injection, schedule: Q04DX003 (ip), vehicle: water
[13] = dose: 50.0 mg/kg/injection, schedule: Q04DX003 (ip), vehicle: water
[14] = dose: 12.5 mg/kg/injection, schedule: Q01DX009 (ip), vehicle: Klucel (hydroxypropylcellulose) (HPC)
[15] = dose: 25.0 mg/kg/injection, schedule: Q01DX009 (ip), vehicle: Klucel (hydroxypropylcellulose) (HPC)

Measured: T/C

Nc1ncc2[nH]c(C(F)(F)F)nc2n1
inactive: [1] 102 % of control | [2] 102 % of control | [3] 105 % of control | dose: 400.0 mg/kg/injection, schedule: Q01DX009 (ip), vehicle: saline with Tween-80 117 % of control

CC1(C)O[C@]2(C)CC[C@@H]1C[C@H]2O
inactive: dose: 50.0 mg/kg/injection, schedule: Q01DX005 (ip), vehicle: saline with Tween-80 100 % of control | dose: 100.0 mg/kg/injection, schedule: Q01DX005 (ip), vehicle: saline with Tween-80 98 % of control | dose: 200.0 mg/kg/injection, schedule: Q01DX005 (ip), vehicle: saline with Tween-80 95 % of control

C[N+]1(C2CCC3CCC2C3O)CCOCC1 (stereo not given)
inactive: dose: 12.5 mg/kg/injection, schedule: Q01DX009 (ip), vehicle: saline 91 % of control and 92 % of control | [4] 100 % of control | [5] 91 % of control and 92 % of control | [6] 100 % of control and 90 % of control | [7] 90 % of control

CCOP(=O)(OCC)C(C)OC (stereo not given)
inactive: [5] 100 % of control and 105 % of control | [8] 115 % of control and 116 % of control | [9] 104 % of control and 120 % of control | dose: 400.0 mg/kg/injection, schedule: Q01DX009 (ip), vehicle: saline 100 % of control

O=[N+]([O-])c1ccccc1S(=O)(=O)Oc1ccccc1
inactive: dose: 100.0 mg/kg/injection, schedule: Q04DX003 (ip), vehicle: Klucel (hydroxypropylcellulose) (HPC) 100 % of control | dose: 200.0 mg/kg/injection, schedule: Q04DX003 (ip), vehicle: Klucel (hydroxypropylcellulose) (HPC) 100 % of control | dose: 400.0 mg/kg/injection, schedule: Q04DX003 (ip), vehicle: Klucel (hydroxypropylcellulose) (HPC) 100 % of control

CCOC(=O)CCN1CCCCCC1
inactive: [4] 91 % of control | [5] 120 % of control | [8] 95 % of control | [6] 100 % of control | [9] 92 % of control | [7] 100 % of control | dose: 400.0 mg/kg/injection, schedule: Q04DX003 (ip), vehicle: saline 118 % of control

N\C([S-])=N/N=C\C(=N/N=C(\N)[S-])C(O)C(O)C(O)CO.[Rh+2] (stereo not given)
inactive: dose: 100.0 mg/kg/injection, schedule: Q01DX001 (ip), vehicle: Klucel (hydroxypropylcellulose) (HPC) 100 % of control | dose: 200.0 mg/kg/injection, schedule: Q01DX001 (ip), vehicle: Klucel (hydroxypropylcellulose) (HPC) 104 % of control | dose: 400.0 mg/kg/injection, schedule: Q01DX001 (ip), vehicle: Klucel (hydroxypropylcellulose) (HPC) 109 % of control

O=S(=O)(O)O.[NH-]CC(N)=O.[NH-]CC(N)=O.[Ni+2]
inactive: [10] 115 % of control | [11] 110 % of control | dose: 12.5 mg/kg/injection, schedule: Q04DX003 (ip), vehicle: water 100 % of control | [12] 90 % of control | [13] 109 % of control

CC(=O)OC1C(C=C(C)C)OC2CC3(C)C4=C(CCC3(C)C2C1C)C1(C)CCC(O)C(C)(C)C1CC4 (stereo not given)
inactive: dose: 50.0 mg/kg/injection, schedule: Q01DX010 (sc), vehicle: steriod suspending solution 90 % of control | dose: 100.0 mg/kg/injection, schedule: Q01DX010 (sc), vehicle: steriod suspending solution 90 % of control | dose: 200.0 mg/kg/injection, schedule: Q01DX010 (sc), vehicle: steriod suspending solution 90 % of control | dose: 400.0 mg/kg/injection, schedule: Q01DX010 (sc), vehicle: steriod suspending solution 86 % of control

COC1=C(O)C(C(O)CO)OC1=O (stereo not given)
inactive: [10] 94 % of control | [11] 112 % of control | dose: 25.0 mg/kg/injection, schedule: Q01DX009 (ip), vehicle: water 110 % of control | [12] 112 % of control | dose: 50.0 mg/kg/injection, schedule: Q01DX009 (ip), vehicle: water 100 % of control | [13] 97 % of control | dose: 100.0 mg/kg/injection, schedule: Q01DX009 (ip), vehicle: water 91 % of control | dose: 100.0 mg/kg/injection, schedule: Q04DX003 (ip), vehicle: water 100 % of control | dose: 200.0 mg/kg/injection, schedule: Q01DX009 (ip), vehicle: water 103 % of control | dose: 200.0 mg/kg/injection, schedule: Q04DX003 (ip), vehicle: water 95 % of control | dose: 400.0 mg/kg/injection, schedule: Q01DX009 (ip), vehicle: water 100 % of control | dose: 400.0 mg/kg/injection, schedule: Q04DX003 (ip), vehicle: water 105 % of control

CC[CH2][Pb]([CH2]CC)([CH2]CC)[N]1C(=O)c2ccccc2C1=O
inactive: dose: 3.12 mg/kg/injection, schedule: Q01DX009 (ip), vehicle: Klucel (hydroxypropylcellulose) (HPC) 108 % of control and 123 % of control | dose: 6.25 mg/kg/injection, schedule: Q01DX009 (ip), vehicle: Klucel (hydroxypropylcellulose) (HPC) 110 % of control and 123 % of control | [14] 123 % of control

C[C@]12CC[C@H]3[C@@H](CC[C@]4(O)C[C@@H](O)CC[C@]34C=O)[C@@]1(O)CC[C@@H]2C1=CC(=O)OC1
inactive: [14] 105 % of control | [15] 95 % of control | dose: 25.0 mg/kg/injection, schedule: Q01DX010 (ip), vehicle: carboxymethylcellulose (CMC) 100 % of control | dose: 50.0 mg/kg/injection, schedule: Q01DX009 (ip), vehicle: Klucel (hydroxypropylcellulose) (HPC) 109 % of control and 115 % of control | dose: 100.0 mg/kg/injection, schedule: Q01DX009 (ip), vehicle: Klucel (hydroxypropylcellulose) (HPC) 100 % of control | dose: 100.0 mg/kg/injection, schedule: Q01DX010 (ip), vehicle: carboxymethylcellulose (CMC) 105 % of control | dose: 200.0 mg/kg/injection, schedule: Q01DX009 (ip), vehicle: Klucel (hydroxypropylcellulose) (HPC) 100 % of control | dose: 200.0 mg/kg/injection, schedule: Q01DX010 (ip), vehicle: carboxymethylcellulose (CMC) 105 % of control

CC1(C)N=C(N)N=C(N)N1c1cccc(CC(=O)Nc2ccc(S(=O)(=O)F)cc2)c1
inactive: dose: 25.0 mg/kg/injection, schedule: Q01DX009 (ip), vehicle: saline with Tween-80 120 % of control
active: [1] 155 % of control | [2] 175 % of control | [3] 170 % of control

CCCCCCC1CCC(N)CC1 (stereo not given)
inactive: [14] 97 % of control | [15] 101 % of control

Cc1cc(C)c(N)c(Br)c1
inactive: dose: 12.5 mg/kg/injection, schedule: Q01DX009 (ip), vehicle: other 90 % of control | dose: 25.0 mg/kg/injection, schedule: Q01DX009 (ip), vehicle: other 90 % of control | dose: 50.0 mg/kg/injection, schedule: Q01DX009 (ip), vehicle: other 114 % of control | dose: 100.0 mg/kg/injection, schedule: Q04DX003 (ip), vehicle: other 100 % of control

ICCCCCCCCCC[n+]1ccc2ccccc2c1
inactive: dose: 12.5 mg/kg/injection, schedule: Q01DX005 (ip), vehicle: saline with Tween-80 120 % of control | dose: 25.0 mg/kg/injection, schedule: Q01DX005 (ip), vehicle: saline with Tween-80 122 % of control

OCC1OC(OC2(CO)OC(CO)C(O)C2O)C(O)C(O)C1O (stereo not given)
inactive: dose: 11.0 mg/kg/injection, schedule: Q01DX009 (ip), vehicle: saline 118 % of control | dose: 22.0 mg/kg/injection, schedule: Q01DX009 (ip), vehicle: saline 113 % of control and 115 % of control | dose: 67.0 mg/kg/injection, schedule: Q01DX009 (ip), vehicle: saline 115 % of control and 122 % of control | dose: 100.0 mg/kg/injection, schedule: Q01DX010 (ip), vehicle: saline 115 % of control | dose: 200.0 mg/kg/injection, schedule: Q01DX010 (ip), vehicle: saline 103 % of control | dose: 400.0 mg/kg/injection, schedule: Q01DX010 (ip), vehicle: saline 100 % of control | dose: 600.0 mg/kg/injection, schedule: Q01DX010 (ip), vehicle: saline 115 % of control

From PubChem BioAssay AID328 (DTP/NCI, 2004)
